Results on three compounds are retold here after ChEMBL document CHEMBL6071193, “Structure-Activity Relationship of Potent, Selective, and Orally Bioavailable Molecular Glue Degraders of CK1α” (ACS Med Chem Lett, 2024).

A word on the EC50: it is the concentration giving half of the maximal effect. One may read the IC50 as the midpoint of a concentration-inhibition curve. The low end stands for inhibition by little substance, the high end for a need for much substance. One may read the DC50 as the concentration at which degradation of the target reaches its halfway point. As usually defined, the Emax is the maximal effect, on the per cent scale that the assay sets. A word on the half-life: it is the time in which the quantity being followed falls by half. In general, Papp B→A refers to how fast a substance crosses the layer from the basolateral side. Broadly, the solubility is the dissolved amount per volume that the medium holds. A high value points to a readily soluble substance. The Papp A→B is how fast a substance crosses the layer from the apical side.

The target in data set [1] is T1, Cereblon/Casein kinase I alpha (Homo sapiens, UniProt P48729+Q96SW2). The experiment in a line: Binding affinity to Halo-tagged CRBN (unknown origin)/HiBiT-tagged CK1alpha in HEK293 cells transfected with LgBiT expression vector assessed as ternary complex formation by measuring fold increase in NanoBRET signal preincubated with MG132 for 30 mins followed by compound addition and measured after 2 hrs by NanoBRET assay relative to control. In kind it is cell-based.
Target sequence in this assay (P48729 2-337 limits assumed): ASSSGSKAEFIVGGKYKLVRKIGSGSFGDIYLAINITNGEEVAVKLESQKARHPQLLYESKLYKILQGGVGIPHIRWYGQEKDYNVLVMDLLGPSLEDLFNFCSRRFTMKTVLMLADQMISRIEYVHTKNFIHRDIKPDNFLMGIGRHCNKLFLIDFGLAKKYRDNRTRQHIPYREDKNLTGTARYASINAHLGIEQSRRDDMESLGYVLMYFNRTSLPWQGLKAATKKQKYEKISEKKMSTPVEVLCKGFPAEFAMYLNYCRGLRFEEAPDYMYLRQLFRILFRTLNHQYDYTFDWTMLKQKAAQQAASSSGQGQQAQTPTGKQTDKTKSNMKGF
Target sequence in this assay (Q96SW2 whole entry partner): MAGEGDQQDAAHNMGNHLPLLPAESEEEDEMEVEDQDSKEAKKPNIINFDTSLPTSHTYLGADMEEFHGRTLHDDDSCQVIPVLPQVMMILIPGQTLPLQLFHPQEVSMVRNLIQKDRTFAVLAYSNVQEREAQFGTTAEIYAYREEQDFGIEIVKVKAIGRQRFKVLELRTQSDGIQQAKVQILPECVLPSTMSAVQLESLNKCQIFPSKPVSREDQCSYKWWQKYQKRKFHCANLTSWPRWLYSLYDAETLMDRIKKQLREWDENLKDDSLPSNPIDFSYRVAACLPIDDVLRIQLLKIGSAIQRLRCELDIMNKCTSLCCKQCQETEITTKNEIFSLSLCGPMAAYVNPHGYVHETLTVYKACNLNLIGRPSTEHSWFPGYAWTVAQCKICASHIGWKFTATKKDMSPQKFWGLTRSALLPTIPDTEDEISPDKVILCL

The target of data set [2] is T2, Cereblon/Ikaros (Homo sapiens, UniProt Q96SW2+Q13422). The experiment in a line: Binding affinity to Halo-tagged CRBN (unknown origin)/HiBiT-tagged IKZF1 in human Jurkat cells transfected with LgBiT expression vector assessed as ternary complex formation by measuring fold increase in NanoBRET signal preincubated with MG132 for 30 mins followed by compound addition and measured after 2 hrs by NanoBRET assay relative to control. It counts as cell-based.

In data set [3] the target is T1, Cereblon/Casein kinase I alpha. The experiment in a line: Binding affinity to Halo-tagged CRBN (unknown origin)/HiBiT-tagged CK1alpha in HEK293 cells transfected with LgBiT expression vector assessed as ternary complex formation preincubated with MG132 for 30 mins followed by compound addition and measured after 2 hrs by NanoBRET assay. In kind it is cell-based. (In general: With HiBiT, luminescence reflects the tagged protein that the partner subunit can reach.)
Target sequence in this assay (P48729 whole entry): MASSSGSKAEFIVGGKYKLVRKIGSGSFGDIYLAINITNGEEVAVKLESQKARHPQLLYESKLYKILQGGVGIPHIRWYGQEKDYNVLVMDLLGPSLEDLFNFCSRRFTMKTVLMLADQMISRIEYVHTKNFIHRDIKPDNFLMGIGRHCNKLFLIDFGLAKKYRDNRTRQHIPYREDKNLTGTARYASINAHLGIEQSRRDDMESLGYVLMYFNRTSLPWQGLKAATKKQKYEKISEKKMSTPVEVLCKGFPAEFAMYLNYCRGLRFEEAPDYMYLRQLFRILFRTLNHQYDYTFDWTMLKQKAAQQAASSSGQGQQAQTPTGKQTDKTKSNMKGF
Target sequence in this assay (Q96SW2 whole entry): as the sequence (Q96SW2 whole entry partner) above

The subject of a further data set is HEK293. The experiment in a line: Cytotoxicity against HEK293 cells expressing HiBiT-tagged CK1alpha at 0.0001 to 100 uM measured over 24 hrs by Cell-Titer Glo assay. In kind it is toxicity, cell-based. The note with it: human, hek293, 24 h, dose 0.0001-100 µM.
A further data set has as its system MOLM-13. The experiment in a line: Antiproliferative activity against human MOLM-13 cells incubated for 72 hrs by Cell-Titer Glo assay. It counts as functional, cell-based. The note with it: MOLM-13, 72 h.
Data set [4] deals with T1, Cereblon/Casein kinase I alpha. The experiment in a line: PROTAC activity at CRBN/HiBiT-tagged CK1alpha in HEK293 cells transfected with LgBiT expression vector assessed as induction of CK1alpha degradation measured after 24 hrs by luminescence based GloMax Discover assay. In kind it is cell-based.
Target sequence in this assay (P48729 whole entry): as the sequence (P48729 whole entry) above
Target sequence in this assay (Q96SW2 whole entry): as the sequence (Q96SW2 whole entry partner) above
For data set [5] the target is unchanged. The experiment in a line: PROTAC activity at CRBN/HiBiT-tagged CK1alpha in HEK293 cells transfected with LgBiT expression vector assessed as induction of CK1alpha degradation by measuring degradation rate at 10 uM measured after 24 hrs by luminescence based GloMax Discover assay. It counts as cell-based.
Target sequence in this assay (P48729 2-337 limits assumed): as the sequence (P48729 2-337 limits assumed) above
Target sequence in this assay (Q96SW2 whole entry partner): as the sequence (Q96SW2 whole entry partner) above
For a further data set, the system named is Jurkat. The experiment in a line: Cytotoxicity against human Jurkat cells expressing HiBiT-tagged IKZF1 at 0.0001 to 100 uM measured over 24 hrs by Cell-Titer Glo assay. It counts as toxicity, cell-based. The note with it: dose 0.0001-100 µM.
The target of data set [6] is Protein cereblon/Eukaryotic peptide chain release factor GTP-binding subunit ERF3A (Homo sapiens) (UniProt Q96SW2+P15170). The experiment in a line: PROTAC activity at CRBN (unknown origin)/human HiBiT-tagged GSPT1 transfected in HEK293 cells assessed as induction of GSPT1 degradation measured after 24 hrs by Nano-Glo reagent based luminescence analysis. It counts as cell-based.

The target in data set [7] is T1, Cereblon/Casein kinase I alpha. The experiment in a line: PROTAC activity at CRBN/HiBiT-tagged CK1alpha in HEK293 cells transfected with LgBiT expression vector assessed as induction of CK1alpha degradation by measuring maximal efficacy at 10 uM measured after 24 hrs by luminescence based GloMax Discover assay relative to control. It counts as cell-based.
Target sequence in this assay (P48729 2-337 limits assumed): as the sequence (P48729 2-337 limits assumed) above
Target sequence in this assay (Q96SW2 whole entry partner): as the sequence (Q96SW2 whole entry partner) above
Data set [8] has as its target Protein cereblon/DNA damage-binding protein 1 (Homo sapiens) (UniProt Q96SW2+Q16531). The experiment in a line: Binding affinity to 6-His tagged CRBN/DDB1 (unknown origin) incubated for 1 hrs in presence of Cy5-O-Len probe by fluorescence polarization assay. In kind it is protein assay.
Data set [9] deals with Cereblon/Ikaros (Homo sapiens, UniProt Q13422+Q96SW2). The experiment in a line: Binding affinity to Halo-tagged CRBN (unknown origin)/HiBiT-tagged IKZF1 in human Jurkat cells transfected with LgBiT expression vector assessed as ternary complex formation preincubated with MG132 for 30 mins followed by compound addition and measured after 2 hrs by NanoBRET assay. In kind it is cell-based.

Data set [10] has as its target T2, Cereblon/Ikaros. The experiment in a line: PROTAC activity at CRBN/HiBiT-tagged IKZF1 in human Jurkat cells transfected with LgBiT expression vector assessed as induction of IKZF1 degradation measured after 24 hrs by luminescence based GloMax Discover assay. It counts as cell-based.
Data set [11] deals with T2, Cereblon/Ikaros. The experiment in a line: PROTAC activity at CRBN/HiBiT-tagged IKZF1 in human Jurkat cells transfected with LgBiT expression vector assessed as induction of IKZF1 degradation by measuring maximal efficacy at 10 uM measured after 24 hrs by luminescence based GloMax Discover assay relative to control. It counts as cell-based.
The nature of data set [12]: Metabolic stability in CD1 mouse hepatocytes assessed as half-life. In kind it is ADME, cell-based, Hepatocyte. The following applies: CD1, mouse.
Data set [13] in a line: Apparent permeability across basolateral to apical side in MDCK-II cells at 10 micromol/L incubated for 1 hrs by UPLC/MS analysis. In kind it is ADME, cell-based, Canis lupus familiaris. The note with it: dog, MDCK, dose 10 µmol/L.
Data set [14] in a line: Stability in mouse plasma assessed as half-life at 10 uM measured upto 48 hrs by UPLC-MS/MS analysis. It counts as ADME, cell-free.
The nature of data set [15]: Solubility of compound at pH 7.4 incubated for 18 hrs by UV-spectra analysis. In kind it is physicochemical. The note with it: buffer, pH 7.4.
Data set [16] is described as follows: Metabolic stability in mouse liver microsomes assessed as half-life at 10 uM measured upto 4 hrs in presence of NADPH by UPLC-MS/MS analysis. It counts as ADME, Microsome. The note with it: liver microsomes. In general terms: Liver microsomes are vesicles of endoplasmic reticulum, rich in cytochrome P450 enzymes.
Data set [17] is described as follows: Apparent permeability across apical to basolateral side in MDCK-II cells at 10 micromol/L incubated for 1 hrs by UPLC/MS analysis. In kind it is ADME, cell-based, Canis lupus familiaris. The following applies: dog, MDCK, dose 10 µmol/L.

The structures appear in SMILES notation. Converted amounts (≈) assume the structure as drawn. The source made the active and inactive calls. The rule behind the calls is not given here. Bounds are passed on as bounds.

Cereblon/Ikaros (Homo sapiens, UniProt Q13422+Q96SW2), sequence (Q96SW2 whole entry): as the sequence (Q96SW2 whole entry partner) above
Cereblon/Ikaros (Homo sapiens, UniProt Q13422+Q96SW2), sequence (Q13422 whole entry): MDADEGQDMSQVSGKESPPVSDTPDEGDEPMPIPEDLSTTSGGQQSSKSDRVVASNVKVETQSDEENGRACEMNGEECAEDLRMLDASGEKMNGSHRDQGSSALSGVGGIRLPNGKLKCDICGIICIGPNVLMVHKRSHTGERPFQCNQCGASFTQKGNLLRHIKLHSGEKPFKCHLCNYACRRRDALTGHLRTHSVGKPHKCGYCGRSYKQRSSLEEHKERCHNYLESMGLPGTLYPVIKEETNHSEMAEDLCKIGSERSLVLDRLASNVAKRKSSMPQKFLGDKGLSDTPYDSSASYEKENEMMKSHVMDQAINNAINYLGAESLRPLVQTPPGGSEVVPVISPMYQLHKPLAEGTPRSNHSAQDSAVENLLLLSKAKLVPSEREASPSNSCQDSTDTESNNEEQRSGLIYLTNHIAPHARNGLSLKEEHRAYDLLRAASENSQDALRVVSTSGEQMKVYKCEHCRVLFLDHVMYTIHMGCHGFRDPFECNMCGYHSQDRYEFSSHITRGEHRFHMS
T2 sequence (Q96SW2 whole entry): as the sequence (Q96SW2 whole entry partner) above
T2 sequence (Q13422 whole entry): as the sequence (Q13422 whole entry) above
Protein cereblon/DNA damage-binding protein 1 (Homo sapiens), sequence (Q16531 2-1140 partner limits assumed): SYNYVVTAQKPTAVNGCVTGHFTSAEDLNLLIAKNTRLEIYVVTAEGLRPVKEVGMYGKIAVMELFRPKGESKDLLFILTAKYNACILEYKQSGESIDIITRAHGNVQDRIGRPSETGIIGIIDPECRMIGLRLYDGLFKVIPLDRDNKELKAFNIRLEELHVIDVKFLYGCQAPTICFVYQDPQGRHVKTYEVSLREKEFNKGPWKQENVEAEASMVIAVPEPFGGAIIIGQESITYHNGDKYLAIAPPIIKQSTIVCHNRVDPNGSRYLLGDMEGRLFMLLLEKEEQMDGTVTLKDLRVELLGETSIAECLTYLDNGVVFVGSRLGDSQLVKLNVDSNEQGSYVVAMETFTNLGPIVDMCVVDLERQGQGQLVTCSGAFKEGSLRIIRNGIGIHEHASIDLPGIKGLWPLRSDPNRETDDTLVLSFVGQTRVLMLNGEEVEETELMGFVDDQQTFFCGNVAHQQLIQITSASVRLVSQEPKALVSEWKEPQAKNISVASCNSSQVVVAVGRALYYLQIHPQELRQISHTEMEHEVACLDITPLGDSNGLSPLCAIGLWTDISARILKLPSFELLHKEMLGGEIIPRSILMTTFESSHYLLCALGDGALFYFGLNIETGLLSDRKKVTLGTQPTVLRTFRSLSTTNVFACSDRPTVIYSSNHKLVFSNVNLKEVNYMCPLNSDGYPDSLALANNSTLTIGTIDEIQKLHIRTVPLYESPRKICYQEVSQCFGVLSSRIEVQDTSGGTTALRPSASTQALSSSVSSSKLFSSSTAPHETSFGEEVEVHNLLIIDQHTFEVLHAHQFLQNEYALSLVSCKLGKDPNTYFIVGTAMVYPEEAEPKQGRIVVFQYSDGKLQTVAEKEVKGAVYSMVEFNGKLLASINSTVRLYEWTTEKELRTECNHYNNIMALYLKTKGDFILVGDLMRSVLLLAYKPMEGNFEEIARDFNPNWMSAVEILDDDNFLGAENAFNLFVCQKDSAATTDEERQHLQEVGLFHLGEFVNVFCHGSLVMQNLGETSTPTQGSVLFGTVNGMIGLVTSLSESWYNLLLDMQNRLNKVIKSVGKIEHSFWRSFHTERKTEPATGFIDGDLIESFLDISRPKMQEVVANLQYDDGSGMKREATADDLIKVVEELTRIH
Protein cereblon/DNA damage-binding protein 1 (Homo sapiens), sequence (Q96SW2 whole entry): as the sequence (Q96SW2 whole entry partner) above
Protein cereblon/Eukaryotic peptide chain release factor GTP-binding subunit ERF3A (Homo sapiens), sequence (P15170 whole entry, looked up): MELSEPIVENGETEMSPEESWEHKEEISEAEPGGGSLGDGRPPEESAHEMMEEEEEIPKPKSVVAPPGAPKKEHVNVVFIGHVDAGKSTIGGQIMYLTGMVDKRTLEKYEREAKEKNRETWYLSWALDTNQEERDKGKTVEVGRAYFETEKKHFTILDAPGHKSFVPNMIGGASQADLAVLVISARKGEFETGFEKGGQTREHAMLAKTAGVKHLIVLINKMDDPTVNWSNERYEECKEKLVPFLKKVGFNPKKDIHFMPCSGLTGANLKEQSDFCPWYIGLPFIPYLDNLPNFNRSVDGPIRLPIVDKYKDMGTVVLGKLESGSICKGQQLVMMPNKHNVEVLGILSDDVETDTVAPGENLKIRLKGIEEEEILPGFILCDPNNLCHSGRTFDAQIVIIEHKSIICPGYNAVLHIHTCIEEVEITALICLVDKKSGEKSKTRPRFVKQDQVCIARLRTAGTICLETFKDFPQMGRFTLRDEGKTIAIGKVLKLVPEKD
Protein cereblon/Eukaryotic peptide chain release factor GTP-binding subunit ERF3A (Homo sapiens), sequence (Q96SW2 whole entry, looked up): as the sequence (Q96SW2 whole entry partner) above

`O=C1CCC(N2Cc3cc(CNC(=O)c4ccc(F)cc4)ccc3C2=O)C(=O)N1` (stereo not drawn): the fold change (FC) in data set [1] is 3; on Cereblon/Ikaros [2], 10. Also, the EC50 came out at 595 nM in data set [3] and 35 nM at Cereblon/Ikaros [9]. Also, the Activity result was “Non-Toxic” with HEK293, 0.1 h⁻¹ in data set [5], “Non-Toxic” with Jurkat and 1.4 µM in data set [8]. In the data set on MOLM-13, the IC50 was > 10000 nM. Moreover, the DC50 in data set [4] was > 10000 nM; at Cereblon/Ikaros [10] it was 80 nM. Besides, the outcome in data set [6] was inactive. For the same compound, the Emax in data set [7] is 23%; on Cereblon/Ikaros [11], 57%.

Regarding `Cc1ccc2c(Nc3ccc4c(c3)CN(C3CCC(=O)NC3=O)C4=O)noc2c1` (stereo not drawn), the half-life in data set [12] was > 3.6 h. Further, the Papp B→A at 1 h, 10 µM in data set [13] turned out to be 2.2 ×10⁻⁶ cm/s. Also, the half-life at 10 µM in data set [14] was 31 h; in data set [16], > 10 h. In the data set with MOLM-13, this compound gave an IC50 of 32 nM. The same compound gave a solubility at 18 h in data set [15] of 7 µM (≈ 2.73 µg/mL). Also, the DC50 in data set [4] came out at 1 nM. In addition, the Activity in data set [5] was 3.5 h⁻¹. In addition, in [7], the Emax is 94%. In addition, the apical-to-basolateral permeability (Papp A→B) at 1 h, 10 µM in [17] was determined as 3 ×10⁻⁶ cm/s.

Regarding `O=C1CCC(N2Cc3c(CNC(=O)c4ccc(F)cc4)cccc3C2=O)C(=O)N1` (stereo not drawn), the fold change (FC) in data set [1] amounted to 6; at Cereblon/Ikaros [2], 11. For the same compound, the EC50 in [3] came out at 260 nM; on Cereblon/Ikaros [9], 120 nM. Also, the values for the DC50 (in data set [4]; at Cereblon/Ikaros [10]) were 28 nM and 53 nM, respectively. Moreover, the Emax in [7] turned out to be 82%; on Cereblon/Ikaros [11], 84%. In data set [8], the Activity was 1.3 µM.
